Entries after “also recorded” stand apart in the source; their conditions may differ. l = locked nucleic acid (LNA); [5mC] = 5-methylcytosine; d = 2'-deoxy (DNA)
Assays:
Format in all cases: physicochemical
[1] = Dissolution profile of tablets comprising Form A sodium caprate and a macromolecule; details: Example 12 Formulation 1 tablets; pH 6.8 phosphate buffer at 37° C.; FIGS. 20A-20B
From the text: The dissolution profiles of tablets comprising Form A sodium caprate and an ASO, prepared according to Example 12, Formulation 1, are illustrated in FIG. 20A. […] (mimicking the small intestinal condition). This allows for maximum absorption enhancement. The dissolution profile of tablets comprising Form A sodium caprate and the MEDI7219 Peptide is illustrated in FIG. 20B. […] (mimicking the small intestinal condition).

[2] = Compaction properties (tabletability, tablet tensile strength, compaction simulator) of sodium caprate forms; details: tablets of each form; high pressure = above approximately 50 MPa
[3] = as above; details: tablets of each form; particle sizes about 37-53, 150-300, 600-710 μm; FIGS. 5A-5C
Procedure: The tabletability of different particle sizes and forms of sodium caprate was obtained by measuring the tensile strength of tablets compressed using a compaction simulator. FIGS. 5A-5C show the results of tabletability with laboratory-scale amounts of sodium caprate with particle sizes of about 37 to 53 μm, of about 150 to 300 μm, and of about 600 to 710 μm, respectively.
Tablets were produced with each of the sodium caprate forms, and compaction properties were assessed.

[4] = Karl Fischer titration, water content of sodium caprate forms; details: forms prepared as in Example 1
Procedure: In some embodiments, the water content of sodium caprate is determined by Karl Fischer titration. Karl Fischer titration uses coulometric or volumetric titration to determine trace amounts of water in a sample. Methods of performing Karl Fischer titration are known to the skilled artisan. In some embodiments, Form A or Form B sodium caprate has a lower water content compared with Form C or Form D water content. In some embodiments, the sodium caprate is Form A sodium caprate characterized by a water content by Karl Fischer titration below 2%, below 1.9%, below 1.8%, below 1.7%, below 1.6%, below 1.5%, or below 1.4%. In some embodiments, Form A sodium caprate has a water content of about 0.4% to about 1.7%. Form B sodium caprate has a water content ≤1%. Form C sodium caprate has a water content of about 2% to about 3%, and Form D sodium caprate has a water content of about 2.5% to about 4%. In some embodiments, the sodium caprate used for making the oral tablet has a water content of less than about 2% as measured by Karl Fischer titration. In some embodiments, the sodium caprate has a water content of less than about 1.5%. In some embodiments, the sodium caprate has a water content of about 1%, about 1.1%, about 1.2%, about 1.3%, about 1.4%, about 1.5%, about 1.6%, about 1.7%, about 1.8%, about 1.9%, or about 2.0%. […]

sticking tendency during tableting [2] | Amount of Water (%) [4] | Molecule | release (dissolution) from tablets [1] | compaction properties / tabletability [3]
no observable sticking at high pressure |  | CCCCCCCCCC(=O)[O-].[Na+] [Form A, sodium caprate] | rapid and concomitant release | best compaction properties
high sticking tendency |  | CCCCCCCCCC(=O)[O-].[Na+] [Form B, sodium caprate] |  | poor tabletability
high sticking tendency | 2-3% | CCCCCCCCCC(=O)[O-].[Na+] [Form C, sodium caprate] |  | poor tabletability; also recorded: worst tabletability
high sticking tendency |  | CCCCCCCCCC(=O)[O-].[Na+] [Form D, sodium caprate] |  | poor tabletability; also recorded: worst tabletability
 |  | GM5CAttctaatagcAGM5C (antisense GCATTCTAATAGCAGC; sugars from the 5' end l3 d10 l3, [5mC] at 2, 16, backbone not given here) [MALAT1, antisense oligonucleotide targeting MALAT1, with LNA nucleosides and 5-methylcytidine, reference compound] | rapid and concomitant release | 
